Experimental data: patent US20260042827A1, “ANTI-WT1 ANTIGEN-BINDING PROTEINS AND USES THEREOF” (UNIVERSITY HEALTH NETWORK, priority 2022, published 2026)
Changes are numbered by the printed parent chain.

Key:
DP2 = target: T1, DP2 (Homo sapiens, UniProt P04440+P20036, A65V/A84D/A85E/K98E); assay: T2 cell-based competitive binding assay; settings: T2 cells transduced with DP2; reference peptide Oxy271-287
T1 sequence (P20036 29-260): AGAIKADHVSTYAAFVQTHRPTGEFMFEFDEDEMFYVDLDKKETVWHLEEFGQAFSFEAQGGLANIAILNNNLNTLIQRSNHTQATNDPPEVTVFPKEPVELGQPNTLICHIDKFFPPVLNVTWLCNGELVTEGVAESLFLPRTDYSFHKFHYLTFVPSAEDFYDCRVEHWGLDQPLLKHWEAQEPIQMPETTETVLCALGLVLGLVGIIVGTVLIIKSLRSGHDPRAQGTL
T1 sequence (P04440 30-258 A65V/A84D/A85E/K98E): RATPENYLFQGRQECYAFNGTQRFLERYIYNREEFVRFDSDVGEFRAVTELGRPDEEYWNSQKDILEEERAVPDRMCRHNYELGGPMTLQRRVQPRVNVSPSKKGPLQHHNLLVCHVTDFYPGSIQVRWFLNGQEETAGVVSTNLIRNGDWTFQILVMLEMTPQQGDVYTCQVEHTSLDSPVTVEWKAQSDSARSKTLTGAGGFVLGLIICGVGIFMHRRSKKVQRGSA

DP4 = target: T2, DP4 (Homo sapiens, UniProt P04440+P20036); assay: T2 cell-based competitive binding assay; settings: T2 cells transduced with DP4; reference peptide Oxy271-287
T2 construct: expressed in transfected cells; host or cells: T2 cells, retrovirally transduced (pMX vector)
T2 sequence (P20036 29-260): T1 sequence (P20036 29-260)
T2 sequence (P04440 30-258): T1 sequence (P04440 30-258 A65V/A84D/A85E/K98E) with V36A, D55A, E56A, E69K

Sequence | IC50 value, displacement of reference peptide (DP2) | IC50 value, displacement of reference peptide (DP4)
CMTWNQMNL [WT1235-243, known HLA-A2 restricted peptide, negative control, reference compound] | failed to displace reference peptide at any tested concentration | failed to displace reference peptide at any tested concentration
PGCNKRYFKLSHLQMHSRKHT [WT1328-348] | comparable to TT947-967 | comparable to TT947-967
